The target of the first test is T1, GluN2B glutamate receptors (Homo sapiens, UniProt Q05586+Q13224).
T1 construct: expressed in transfected cells; host or cells: mammalian cells (line not described for GluN2B)
T1 sequence (Q13224 27-1484, other chains not shown): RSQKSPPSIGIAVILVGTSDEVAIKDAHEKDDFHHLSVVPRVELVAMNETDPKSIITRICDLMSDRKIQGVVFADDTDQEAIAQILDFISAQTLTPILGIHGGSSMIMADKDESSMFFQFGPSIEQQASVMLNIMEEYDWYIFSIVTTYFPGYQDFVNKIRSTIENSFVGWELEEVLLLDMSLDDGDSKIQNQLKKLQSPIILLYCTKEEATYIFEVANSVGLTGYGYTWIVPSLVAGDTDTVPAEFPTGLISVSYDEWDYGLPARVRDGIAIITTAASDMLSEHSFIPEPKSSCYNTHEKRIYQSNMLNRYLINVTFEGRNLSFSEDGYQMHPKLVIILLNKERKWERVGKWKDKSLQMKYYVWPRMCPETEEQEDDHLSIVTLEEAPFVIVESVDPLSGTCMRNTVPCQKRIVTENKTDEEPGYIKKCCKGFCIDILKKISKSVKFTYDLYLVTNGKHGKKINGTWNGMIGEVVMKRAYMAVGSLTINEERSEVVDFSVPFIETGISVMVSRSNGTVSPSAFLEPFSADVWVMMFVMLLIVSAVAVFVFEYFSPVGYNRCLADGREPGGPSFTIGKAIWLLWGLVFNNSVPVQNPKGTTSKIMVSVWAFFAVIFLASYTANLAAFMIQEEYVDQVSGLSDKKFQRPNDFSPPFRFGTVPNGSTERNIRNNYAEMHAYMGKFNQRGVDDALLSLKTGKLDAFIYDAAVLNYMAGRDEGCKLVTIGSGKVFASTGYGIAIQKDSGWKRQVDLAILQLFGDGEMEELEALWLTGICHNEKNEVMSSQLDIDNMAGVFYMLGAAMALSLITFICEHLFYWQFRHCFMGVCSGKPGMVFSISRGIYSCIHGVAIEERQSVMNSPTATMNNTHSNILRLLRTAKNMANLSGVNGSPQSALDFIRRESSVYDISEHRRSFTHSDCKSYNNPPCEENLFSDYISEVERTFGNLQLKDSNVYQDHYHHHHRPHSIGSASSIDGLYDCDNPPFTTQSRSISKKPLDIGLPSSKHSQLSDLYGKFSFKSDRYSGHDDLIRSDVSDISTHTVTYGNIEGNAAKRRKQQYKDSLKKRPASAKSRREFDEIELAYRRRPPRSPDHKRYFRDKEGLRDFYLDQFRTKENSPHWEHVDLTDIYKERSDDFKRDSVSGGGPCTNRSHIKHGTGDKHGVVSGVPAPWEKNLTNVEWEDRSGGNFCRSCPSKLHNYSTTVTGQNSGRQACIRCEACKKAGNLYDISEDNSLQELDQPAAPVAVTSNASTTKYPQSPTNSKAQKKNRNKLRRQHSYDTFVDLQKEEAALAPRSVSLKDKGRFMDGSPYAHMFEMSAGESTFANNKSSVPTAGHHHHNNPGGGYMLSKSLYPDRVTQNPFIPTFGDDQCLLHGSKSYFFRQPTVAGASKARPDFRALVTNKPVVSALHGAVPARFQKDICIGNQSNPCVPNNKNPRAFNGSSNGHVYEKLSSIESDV
In words: Whole-cell patch clamp of mammalian cells (Ionworks Barracuda), positive allosteric modulation (PAM) of NMDA receptor, 2B. Type of test: cell-based. The conditions noted are these: % activation of current elicited with EC20 L-glutamate and 30 µM glycine. As for the experimental part:
(§1) The measurements were perfomed using Ion Works Barracuda platform following this procedure: • Electrophysiological Procedures: • a) Intracellular solution (mM): 50 mM CsCl, 90 mM CsF, 2 mM MgCl2, 5 mM EGTA, 10 mM HEPES. Adjust to pH 7.2 with CsOH. • b) Extracellular solution, HB-PS (composition in mM): NaCl, 137; KCl, 1.0; CaCl2, 5; HEPES, 10; Glucose, 10; pH adjusted to 7.4 with NaOH (refrigerated until use). • c) Holding potential: -70 mV, potential during agonist/PAM application: -40 mV. • Recording procedure: • a) Extracellular buffer will be loaded into the PPC plate wells (11 µL per well). Cell suspension will be pipetted into the wells (9 µL per well) of the PPC planar electrode. • b) Whole-cell recording configuration will be established via patch perforation with membrane currents recorded by on-board patch clamp amplifiers. • c) Two recordings (scans) will be performed. First, during pre-application of test article alone (duration of pre-application - 5 min) and second, during test articles and agonist (EC20 L-glutamate and 30 µM glycine) co-application to detect positive modulatory effects of the test article.
(§2) Test Article Administration: The first pre-application will consist of the addition of 20 µL of 2X concentrated test article solution and, second, of 20 µL of 1X concentrated test article and agonist at 10 µL/s (2 second total application time).
(§3) PAM concentration-response data will be fitted to an equation of the form: % Activation = % L−glutamate EC20 + {(%MAX−%L−glutamateEC20)/[1+(([Test]/; EC50))^N]}, [formula] where [Test] will be the concentration of PAM (test article), EC50 will be the concentration of PAM producing half-maximal activation, N will be the Hill coefficient, % L-glutamate EC20 will be the percentage of the current Elicited with L-glutamate EC20, % MAX is the percentage of the current activated with the highest dose of PAM co-admitted with L-glutamate EC20 and % Activation will be the percentage of the current elicited with L-glutamate EC10-30 at each PAM concentration.
(§4) The maximal amplitude of the evoked currents are measured and defined as Peak Current Amplitude (PCA).
(In general: The patch-clamp technique gives a direct electrical read-out from membranes.)
In general, Emax refers to the size of the effect at its maximum, as opposed to the concentration needed. Compound `CCC1(O)CCC2(C)C(=CCC3C2CCC2(C)C(C(C)CCC(O)c4ccccc4F)CCC32)C1` (single isomer, unassigned) [Compound 7281] showed an Emax of 126%.

In the case of `CCC1(O)CCC2C(=CCC3C2CCC2(C)C(C(C)CCC4(O)CCOC4)CCC32)C1` (single isomer, unassigned) [Compound 8602], the Emax was 262%.

For the compound `CC(C)[C@@H](O)CC[C@@H](C)[C@H]1CC[C@H]2[C@@H]3CC=C4C[C@](O)(C(F)(F)F)CC[C@]4(C)[C@H]3CC[C@]12C` [Compound 1-A], the Emax was found to be 250%.

Compound `CC(C)[C@H](O)CC[C@@H](C)[C@H]1CC[C@H]2[C@@H]3CC=C4C[C@](O)(C(F)(F)F)CC[C@]4(C)[C@H]3CC[C@]12C` [Compound 1-B] registered an Emax of 285%.

Take `CC(C)[C@@H](O)CC[C@@H](C)[C@H]1CC[C@H]2[C@@H]3CC[C@H]4C[C@@](C)(O)CC[C@@H]4[C@H]3CC[C@]12C` [Compound 1A75]: the “Avg Emax 2B (%)” value worked out at 308.0%.

Take `CC(C)[C@H](O)CC[C@@H](C)[C@H]1CC[C@H]2[C@@H]3CC[C@H]4C[C@@](C)(O)CC[C@@H]4[C@H]3CC[C@]12C` [Compound 1B75]: the “Avg Emax 2B (%)” value came to 233.1%.

`C[C@H](O)CC[C@@H](C)[C@H]1CC[C@H]2[C@@H]3CC[C@H]4C[C@](O)(C(F)(F)F)CC[C@]4(C)[C@H]3CC[C@]12C` [Compound 6] had an Emax of 163%.

Take `C[C@H](CCC1(O)CCC(F)(F)CC1)[C@H]1CC[C@H]2[C@@H]3CC[C@H]4C[C@](O)(C(F)(F)F)CC[C@]4(C)[C@H]3CC[C@]12C` [Compound 8]: the Emax was determined as 322%.

For `C[C@H](CCC1(O)CCOC1)[C@H]1CC[C@H]2[C@@H]3CC=C4C[C@](O)(C(F)(F)F)CC[C@]4(C)[C@H]3CC[C@]12C` (stereo partly drawn) [Compound 10], the Emax is 362%.

As for `C[C@H](CCC1(O)CCOCC1)[C@H]1CC[C@H]2[C@@H]3CC[C@H]4C[C@](O)(C(F)(F)F)CC[C@]4(C)[C@H]3CC[C@]12C` [Compound 11], the “Avg Emax 2B (%)” value is 157.4%.

`C[C@H](CCC[C@@H](C)O)[C@H]1CC[C@H]2[C@@H]3CC[C@H]4C[C@](O)(C(F)(F)F)CC[C@]4(C)[C@H]3CC[C@]12C` [Compound 112]: the “Avg Emax 2B (%)” value was found to be 150.8%.

As to `C[C@H](CCC(O)(c1ccccc1)C(F)(F)F)[C@H]1CC[C@H]2[C@@H]3CC=C4C[C@@](C)(O)CC[C@]4(C)[C@H]3CC[C@]12C` (stereo partly drawn) [Compound 559], the “Avg Emax 2B (%)” value is given as 373.2%.

`C[C@H](CCC(O)Cc1ccccc1)[C@H]1CC[C@H]2[C@@H]3CC=C4C[C@@](C)(O)CC[C@]4(C)[C@H]3CC[C@]12C` (stereo partly drawn) [Compound 660]: the “Avg Emax 2B (%)” value amounted to 281.1%.

As to `C[C@H](O)CCC[C@@H](C)[C@H]1CC[C@H]2[C@@H]3CC[C@H]4C[C@](O)(C(F)(F)F)CC[C@]4(C)[C@H]3CC[C@]12C` [Compound 2113], the “Avg Emax 2B (%)” value amounted to 285.0%.

The test is the same for the next values; noted with them: co-application with EC20 L-glutamate and 30 µM glycine; 8-point concentration-response.
Broadly, the EC50 is the concentration that produces a half-maximal response. Low values mean greater potency, high ones weaker potency. `CC(C)[C@@H](O)CC[C@@H](C)[C@H]1CC[C@H]2[C@@H]3CC[C@H]4C[C@@](C)(O)CC[C@@H]4[C@H]3CC[C@]12C` [Compound 1A75] yielded a 50% effective concentration (EC50) of 440 nM.

`CC(C)[C@H](O)CC[C@@H](C)[C@H]1CC[C@H]2[C@@H]3CC[C@H]4C[C@@](C)(O)CC[C@@H]4[C@H]3CC[C@]12C` [Compound 1B75]: a half-maximal effect (EC50) was put at 183 nM.

In the case of `C[C@H](CCC1(O)CCOCC1)[C@H]1CC[C@H]2[C@@H]3CC[C@H]4C[C@](O)(C(F)(F)F)CC[C@]4(C)[C@H]3CC[C@]12C` [Compound 11], the EC50 turned out to be 104 nM.

As to `C[C@H](CCC[C@@H](C)O)[C@H]1CC[C@H]2[C@@H]3CC[C@H]4C[C@](O)(C(F)(F)F)CC[C@]4(C)[C@H]3CC[C@]12C` [Compound 112], the half-maximal effective concentration (EC50) came out at 478 nM.

As for `C[C@H](CCC(O)(c1ccccc1)C(F)(F)F)[C@H]1CC[C@H]2[C@@H]3CC=C4C[C@@](C)(O)CC[C@]4(C)[C@H]3CC[C@]12C` (stereo partly drawn) [Compound 559], the EC50 was 1560 nM.

`C[C@H](CCC(O)Cc1ccccc1)[C@H]1CC[C@H]2[C@@H]3CC=C4C[C@@](C)(O)CC[C@]4(C)[C@H]3CC[C@]12C` (stereo partly drawn) [Compound 660] came in with an EC50 of 517 nM.

Compound `C[C@H](O)CCC[C@@H](C)[C@H]1CC[C@H]2[C@@H]3CC[C@H]4C[C@](O)(C(F)(F)F)CC[C@]4(C)[C@H]3CC[C@]12C` [Compound 2113] had an EC50 of 413 nM.

The target of the next test is T2, GlunN1/GluN2A glutamate receptors (Homo sapiens, UniProt Q05586+Q12879).
T2 construct: expressed in transfected cells
T2 sequence (Q12879 23-1464, other chains not shown): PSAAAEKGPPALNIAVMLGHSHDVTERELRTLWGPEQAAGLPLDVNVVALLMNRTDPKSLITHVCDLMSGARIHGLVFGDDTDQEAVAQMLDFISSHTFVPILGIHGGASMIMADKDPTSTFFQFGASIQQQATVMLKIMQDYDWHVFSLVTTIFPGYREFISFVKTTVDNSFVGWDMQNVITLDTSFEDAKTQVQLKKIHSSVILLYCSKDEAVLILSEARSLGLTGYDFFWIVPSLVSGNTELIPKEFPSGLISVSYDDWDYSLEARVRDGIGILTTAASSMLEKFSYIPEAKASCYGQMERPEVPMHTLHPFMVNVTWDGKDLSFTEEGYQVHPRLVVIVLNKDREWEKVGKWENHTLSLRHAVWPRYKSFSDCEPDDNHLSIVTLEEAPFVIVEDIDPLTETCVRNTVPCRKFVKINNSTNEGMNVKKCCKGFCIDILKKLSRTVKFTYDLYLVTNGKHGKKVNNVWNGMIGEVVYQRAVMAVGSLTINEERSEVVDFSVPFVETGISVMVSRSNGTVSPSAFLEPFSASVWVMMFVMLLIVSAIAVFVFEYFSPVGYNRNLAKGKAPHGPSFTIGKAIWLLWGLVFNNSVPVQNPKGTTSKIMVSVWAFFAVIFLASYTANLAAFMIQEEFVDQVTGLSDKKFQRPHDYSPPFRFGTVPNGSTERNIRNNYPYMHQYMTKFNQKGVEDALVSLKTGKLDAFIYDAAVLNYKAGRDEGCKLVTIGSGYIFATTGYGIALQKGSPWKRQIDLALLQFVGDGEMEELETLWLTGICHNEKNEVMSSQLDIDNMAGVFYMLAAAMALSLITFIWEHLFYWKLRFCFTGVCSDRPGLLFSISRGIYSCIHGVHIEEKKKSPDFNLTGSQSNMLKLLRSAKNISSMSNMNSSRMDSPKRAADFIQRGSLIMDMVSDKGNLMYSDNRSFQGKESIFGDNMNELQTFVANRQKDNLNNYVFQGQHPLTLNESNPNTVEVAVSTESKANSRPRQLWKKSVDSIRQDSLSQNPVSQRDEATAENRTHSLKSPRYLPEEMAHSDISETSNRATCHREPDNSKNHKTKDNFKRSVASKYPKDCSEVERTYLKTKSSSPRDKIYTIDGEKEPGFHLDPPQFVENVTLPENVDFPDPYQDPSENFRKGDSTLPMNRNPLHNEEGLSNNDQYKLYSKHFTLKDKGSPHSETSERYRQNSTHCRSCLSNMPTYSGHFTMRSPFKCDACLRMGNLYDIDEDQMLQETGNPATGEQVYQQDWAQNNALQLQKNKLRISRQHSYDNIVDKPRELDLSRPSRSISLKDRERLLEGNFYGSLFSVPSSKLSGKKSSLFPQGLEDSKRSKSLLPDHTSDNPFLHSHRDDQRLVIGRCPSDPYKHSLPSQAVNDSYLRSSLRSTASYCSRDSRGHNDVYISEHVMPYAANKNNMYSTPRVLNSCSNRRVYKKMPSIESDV
In words: Whole-cell patch clamp of mammalian cells (Ionworks Barracuda), positive allosteric modulation (PAM) of NMDA receptor, 2A. Type of test: cell-based. The conditions noted are these: HEK293, HEK293 cells; % activation of current elicited with EC20 L-glutamate and 30 µM glycine. As for the experimental part:
as §1, §2, §3, §4
Consider `CCC1(O)CCC2(C)C(=CCC3C2CCC2(C)C(C(C)CCC(O)c4ccccc4F)CCC32)C1` (single isomer, unassigned) [Compound 7281], for which the Emax was found to be 98.1%.

For the compound `CCC1(O)CCC2C(=CCC3C2CCC2(C)C(C(C)CCC4(O)CCOC4)CCC32)C1` (single isomer, unassigned) [Compound 8602], the Emax stood at 272%.

Consider `CC(C)[C@@H](O)CC[C@@H](C)[C@H]1CC[C@H]2[C@@H]3CC=C4C[C@](O)(C(F)(F)F)CC[C@]4(C)[C@H]3CC[C@]12C` [Compound 1-A], for which the Emax amounted to 275%.

`CC(C)[C@H](O)CC[C@@H](C)[C@H]1CC[C@H]2[C@@H]3CC=C4C[C@](O)(C(F)(F)F)CC[C@]4(C)[C@H]3CC[C@]12C` [Compound 1-B] yielded an Emax of 262%.

Regarding `C[C@H](O)CC[C@@H](C)[C@H]1CC[C@H]2[C@@H]3CC[C@H]4C[C@](O)(C(F)(F)F)CC[C@]4(C)[C@H]3CC[C@]12C` [Compound 6], the Emax was 137%.

In the case of `C[C@H](CCC1(O)CCC(F)(F)CC1)[C@H]1CC[C@H]2[C@@H]3CC[C@H]4C[C@](O)(C(F)(F)F)CC[C@]4(C)[C@H]3CC[C@]12C` [Compound 8], the Emax was 402%.

For `C[C@H](CCC1(O)CCOC1)[C@H]1CC[C@H]2[C@@H]3CC=C4C[C@](O)(C(F)(F)F)CC[C@]4(C)[C@H]3CC[C@]12C` (stereo partly drawn) [Compound 10], the Emax amounted to 632%.

The same test, now with this note: HEK293 cells; % activation of current elicited with EC20 L-glutamate and 30 µM glycine.
Regarding `CC(C)[C@@H](O)CC[C@@H](C)[C@H]1CC[C@H]2[C@@H]3CC[C@H]4C[C@@](C)(O)CC[C@@H]4[C@H]3CC[C@]12C` [Compound 1A75], the “Avg Emax 2A (%)” value was determined as 457.2%.

Take `CC(C)[C@H](O)CC[C@@H](C)[C@H]1CC[C@H]2[C@@H]3CC[C@H]4C[C@@](C)(O)CC[C@@H]4[C@H]3CC[C@]12C` [Compound 1B75]: the “Avg Emax 2A (%)” value is 278.8%.

On to `C[C@H](CCC1(O)CCOCC1)[C@H]1CC[C@H]2[C@@H]3CC[C@H]4C[C@](O)(C(F)(F)F)CC[C@]4(C)[C@H]3CC[C@]12C` [Compound 11], for which the “Avg Emax 2A (%)” value stood at 151.2%.

Regarding `C[C@H](CCC[C@@H](C)O)[C@H]1CC[C@H]2[C@@H]3CC[C@H]4C[C@](O)(C(F)(F)F)CC[C@]4(C)[C@H]3CC[C@]12C` [Compound 112], the “Avg Emax 2A (%)” value is recorded as 92.6%.

In the case of `C[C@H](CCC(O)(c1ccccc1)C(F)(F)F)[C@H]1CC[C@H]2[C@@H]3CC=C4C[C@@](C)(O)CC[C@]4(C)[C@H]3CC[C@]12C` (stereo partly drawn) [Compound 559], the “Avg Emax 2A (%)” value was 204.3%.

As to `C[C@H](CCC(O)Cc1ccccc1)[C@H]1CC[C@H]2[C@@H]3CC=C4C[C@@](C)(O)CC[C@]4(C)[C@H]3CC[C@]12C` (stereo partly drawn) [Compound 660], the “Avg Emax 2A (%)” value is reported as 195.2%.

With `C[C@H](O)CCC[C@@H](C)[C@H]1CC[C@H]2[C@@H]3CC[C@H]4C[C@](O)(C(F)(F)F)CC[C@]4(C)[C@H]3CC[C@]12C` [Compound 2113], the “Avg Emax 2A (%)” value stood at 402.7%.

Staying with this test, now noted: HEK293 cells; co-application with EC20 L-glutamate and 30 µM glycine; 8-point concentration-response.
In turn, `CC(C)[C@@H](O)CC[C@@H](C)[C@H]1CC[C@H]2[C@@H]3CC[C@H]4C[C@@](C)(O)CC[C@@H]4[C@H]3CC[C@]12C` [Compound 1A75] displayed a concentration giving a half-maximal response (EC50) of 671 nM.

Compound `CC(C)[C@H](O)CC[C@@H](C)[C@H]1CC[C@H]2[C@@H]3CC[C@H]4C[C@@](C)(O)CC[C@@H]4[C@H]3CC[C@]12C` [Compound 1B75] yielded an EC50 of 165 nM.

For the compound `C[C@H](CCC1(O)CCOCC1)[C@H]1CC[C@H]2[C@@H]3CC[C@H]4C[C@](O)(C(F)(F)F)CC[C@]4(C)[C@H]3CC[C@]12C` [Compound 11], the EC50 worked out at 117 nM.

For the compound `C[C@H](CCC[C@@H](C)O)[C@H]1CC[C@H]2[C@@H]3CC[C@H]4C[C@](O)(C(F)(F)F)CC[C@]4(C)[C@H]3CC[C@]12C` [Compound 112], the EC50 came out at 480 nM.

For the compound `C[C@H](CCC(O)(c1ccccc1)C(F)(F)F)[C@H]1CC[C@H]2[C@@H]3CC=C4C[C@@](C)(O)CC[C@]4(C)[C@H]3CC[C@]12C` (stereo partly drawn) [Compound 559], it took 1570 nM to reach a half-maximal effect (EC50).

For `C[C@H](CCC(O)Cc1ccccc1)[C@H]1CC[C@H]2[C@@H]3CC=C4C[C@@](C)(O)CC[C@]4(C)[C@H]3CC[C@]12C` (stereo partly drawn) [Compound 660], the EC50 was determined as 701 nM.

In turn, `C[C@H](O)CCC[C@@H](C)[C@H]1CC[C@H]2[C@@H]3CC[C@H]4C[C@](O)(C(F)(F)F)CC[C@]4(C)[C@H]3CC[C@]12C` [Compound 2113] yielded an EC50 of 380 nM.
